The values below come from US12286474B2, “Anti-CD38 antibodies for treatment of acute myeloid leukemia” (Janssen Biotech, Inc., priority 2014, dated 2025).

The test system of experiment [1] is NB-4 AML cell line. The experiment is described as follows: CD38 surface expression by FACS with PE-labeled anti-CD38 antibody. It counts as cell-based. The note with it: 24 hours; for PE-CD38 molecules/cell: NB-4. On the procedure: Effect of ATRA on CD38 surface expression was assessed in NB-4 AML cell line. Tumor cells were incubated at 37° C. for 24 hours in the presence or absence of 10 nM or 100 nM ATRA. After 24 hour incubation, the cells were harvested and stained for CD38. ATRA induced ˜10-fold increase in CD38 receptors in the NB-4 cell line. CD38 surface expression was assessed using FACS using PE-labeled anti-CD38 antibody (R&D Systems) (Table 2).

Experiment [2] relates to MV-4-11. The experiment is described as follows: CDC (cell lysis, CellTiter-Glo). It counts as cell-based. Conditions: human serum 10%. The method, then:
(§1) Target cells were harvested and adjusted to a concentration of 80×10^4 cells/ml. Twelve μl of target cells were added to wells of a 96-well plate, and serial dilution of antibodies added onto the cells. The wells were incubated for 15 minutes, after which human serum high in complement was added at a final concentration of 10%. Reaction mixture was incubated for 21/2 hours at 37° C., and cell lysis was measured using the CellTiter-Glo® assay (Promega).

In experiment [3] the test system is MOLM-16. Briefly: CDC (cell lysis, CellTiter-Glo). Format: cell-based. The note with it: human serum 10%. The method, then: as §1
The subject of experiment [4] is ML-2. The experiment is described as follows: CDC (cell lysis, CellTiter-Glo). It counts as cell-based. Conditions: human serum 10%. On the procedure: as §1
The subject of experiment [5] is MOLM-13. Briefly: CDC (cell lysis, CellTiter-Glo). It counts as cell-based. The note with it: human serum 10%. On the procedure: as §1
The subject of experiment [6] is THP-1. Briefly: CDC (cell lysis, CellTiter-Glo). Conditions: human serum 10%. Format: cell-based. On the procedure: as §1
Experiment [7] deals with NB4. The experiment is described as follows: CDC (cell lysis, CellTiter-Glo). It counts as cell-based. The note with it: human serum 10%. On the procedure:
as §1

Experiment [8] relates to AML 8096 model. The experiment is described as follows: Patient-derived xenograft (PDX) AML 8096 model, leukemic burden. It counts as in vivo, NSG mice. Conditions: spleen, i.p. 10 mg/kg once a week, 5 weeks. The source says: (§2) Patient tumor models AML 3406, AML 7577 and AML 8096 were used in the study.
AML 8096 model: Leukemic cells were collected from a person with AML (FAB subtype M2). White blood cell count was 20×10e^9/L, from which 70% were blast cells. Patient had normal karyotype with wild type TP53, FLT3, NPM1, and insertion 570-587, 3GCACCC>4GCACCC in CEBPA exon1. Patient has a history of polycythemia versa, and received idarubicin/cytrabine for induction chemotherapy. Patient also received Hudrea® (hydroxyurea).
(§3) 5 million AML MNCs were T-cell depleted and transplanted via tail vein into 6-8 weeks old sub-lethally irradiated NSG mice (n=10 per group). 4 to 6 weeks post-engraftment, bone marrow aspirates were collected from each mouse and were analyzed by flow cytometry to determine the level of leukemia engraftment (% of human CD45^+CD33^+/− cells). Based on engraftment levels, mice were randomized and conditioned with either IgG1 or daratumumab (DARA, pre-dosing at 0.5 mg/kg). 24 hours later, mice were untreated (Ctrl) or treated for 5 consecutive weeks with DARA or IgG1 alone (i.p, 10 mg/kg once a week). 2-3 days after the last treatment, mice were sacrificed and bone marrow, spleen, peripheral blood and plasma were collected for analysis. […]

For experiment [9], the system named is AML 7577 model. Briefly: Patient-derived xenograft (PDX) AML 7577 model, leukemic burden. Format: in vivo, NSG mice. Conditions: peripheral blood, i.p. 10 mg/kg once a week, 5 weeks.
Source text: as §2
AML 7577 model: Leukemic cells were collected from a person with AML (FAB subtype M5). Patient had normal karyotype and following mutations: IDH2(R140Q); FLT3-ITD; DNMT3A R882H, NPM1, CEBPA insertion (SNP). Patient has a history of polycythemia versa, and received idarubicin/cytrabine for induction chemotherapy. Patient also received Hudrea® (hydroxyurea).
as §3

Experiment [10] deals with AML cell lines. Briefly: Apoptosis, summary over AML cell lines. It counts as cell-based. The method, then: (§4) One ml of target cells (5×10^5 cells/ml) were added to the well of a 24-well plate, together with test antibody (1 μg/ml) in the presence or absence of rabbit anti-huIgG (10 μg/ml; F(ab′)2 Fcγ-specific). Cells were incubated for 22 hours (5% CO2, 37° C.). Thereafter, cells were harvested (1000 rpm, 5 min) and washed twice in PBS (1000 rpm, 5 min). Cells were resuspended in 250 μl binding buffer (Annexin-V Apoptosis kit, BD Biosciences) according to manufacturer's instruction, followed by flow cytometry analysis.
(§5) Apoptosis was measured by both early and late apoptosis (Q2 and Q3 in FIG. 1A and FIG. 1B).

Experiment [11] relates to NB-4 AML cell line. The experiment is described as follows: Apoptosis (Annexin-V flow cytometry). It counts as cell-based. The note with it: for daratumumab-induced apoptosis: NB-4 cell line. On the procedure: as §4, §5
The subject of experiment [12] is MV-4-11. Briefly: Apoptosis (Annexin-V flow cytometry). Format: cell-based. Conditions: antibody 1 μg/ml, 22 hours, early and late apoptosis. On the procedure: as §4, §5
Experiment [13] relates to MOLM-16. Briefly: Apoptosis (Annexin-V flow cytometry). Conditions: antibody 1 μg/ml, 22 hours, early and late apoptosis. It counts as cell-based. The method, then: as §4, §5
The subject of experiment [14] is ML-2. Briefly: Apoptosis (Annexin-V flow cytometry). The note with it: antibody 1 μg/ml, 22 hours, early and late apoptosis. It counts as cell-based. On the procedure:
as §4, §5

The test system of experiment [15] is MOLM-13. The experiment is described as follows: Apoptosis (Annexin-V flow cytometry). Format: cell-based. Conditions: antibody 1 μg/ml, 22 hours, early and late apoptosis. The method, then: as §4, §5
In experiment [16] the test system is THP-1. Briefly: Apoptosis (Annexin-V flow cytometry). It counts as cell-based. The note with it: antibody 1 μg/ml, 22 hours, early and late apoptosis. On the procedure:
as §4, §5

Experiment [17] concerns MV-4-11. The experiment is described as follows: In vitro ADCC with PBMC effector cells. Format: cell-based. The note with it: PBMC effector cells at ratio 50:1, 6 hours. The method, then: (§6) In vitro ADCC assays were performed using AML tumor cell lines and Peripheral Blood Mononuclear Cells (PBMC) as effector cells at a ratio of 50:1. One hundred μl of target (tumor) cells (1×10^4 cells) were added to wells of 96-well U-bottom plates. An additional 100 μl was added with or without antibody, and the plates were incubated for 30 minutes at room temperature (RT) before adding effector cells (PBMC). Seventy five μl of PBMCs at concentration 6.66×10^6 cells/ml was added to the wells of the plates, and the plates were incubated at 37° C. for 6 hours. Plates were centrifuged at 250 g for 4 minutes, 50 μl of supernatant removed per well and cell lysis was measured using the CellTiter-Glo® assay (Promega).

Experiment [18] concerns MOLM-16. The experiment is described as follows: In vitro ADCC with PBMC effector cells. Format: cell-based. The note with it: PBMC effector cells at ratio 50:1, 6 hours. The method, then:
as §6

In experiment [19] the test system is ML-2. The experiment is described as follows: In vitro ADCC with PBMC effector cells. Format: cell-based. Conditions: PBMC effector cells at ratio 50:1, 6 hours. On the procedure: as §6
Experiment [20] has as its system MOLM-13. The experiment is described as follows: In vitro ADCC with PBMC effector cells. It counts as cell-based. Conditions: PBMC effector cells at ratio 50:1, 6 hours. On the procedure: as §6
The subject of experiment [21] is THP-1. Briefly: In vitro ADCC with PBMC effector cells. It counts as cell-based. Conditions: PBMC effector cells at ratio 50:1, 6 hours. On the procedure:
as §6

Experiment [22] relates to NB4. Briefly: In vitro ADCC with PBMC effector cells. Conditions: PBMC effector cells at ratio 50:1, 6 hours. It counts as cell-based. On the procedure:
as §6

Experiment [23] concerns AML cell lines. Briefly: ADCC, summary over AML cell lines. It counts as cell-based. On the procedure:
as §6

The test system of experiment [24] is AML 3406 model. The experiment is described as follows: Patient-derived xenograft (PDX) AML 3406 model, leukemic burden. It counts as in vivo, NSG mice. Conditions: for tumor burden (% leukemic CD45+CD33+ cells): i.p. 10 mg/kg once a week, 5 weeks.
Source text: as §2
AML3406 model: Patient tumor cells were positive for FLT-3ITD. Patient has a history of polycythemia versa, and received idarubicin/cytrabine for induction chemotherapy. Patient also received Hudrea® (hydroxyurea).
(§7) 5 million AML MNCs were T-cell depleted and transplanted via tail vein into 6-8 weeks old sub-lethally irradiated NSG mice (n=10 per group). 4 to 6 weeks post-engraftment, bone marrow aspirates were collected from each mouse and were analyzed by flow cytometry to determine the level of leukemia engraftment (% of human CD45^+CD33^+/− cells). Based on engraftment levels, mice were randomized and conditioned with either IgG1 or daratumumab (DARA, pre-dosing at 0.5 mg/kg). 24 hours later, mice were untreated (Ctrl) or treated for 5 consecutive weeks with DARA or IgG1 alone (i.p, 10 mg/kg once a week). 2-3 days after the last treatment, mice were sacrificed and bone marrow, spleen, peripheral blood and plasma were collected for analysis. Flow cytometry was performed to assess percentage of human CD45^+CD33^+ cells in the BM, SPL and PB of 3 AML patients engrafted in NSG mice (AML 3406 model: FIG. 2A; AML 7577 model: FIG. 2B, AML 8096 model: FIG. 2C) and absolute number of the human CD45^+CD33^+ cells in bone marrow (FIG. 3A), spleen (FIG. 3B) and peripheral blood (FIG. 3C) of one representative AML patient.

Experiment [25] has as its system CD38 on leukemia blasts (CD45+CD33+ positive cells). The experiment is described as follows: CD38 expression on leukemic blasts in PDX AML 3406 model. Conditions: after 5 weeks of treatment. It counts as in vivo, NSG mice. On the procedure:
as §7
Effect of daratumumab on CD38 expression on leukemic blasts was assessed in one representative AML model described in Example 3 after 5 weeks of treatment with daratumumab or isotype control using PE-labeled anti-CD38 antibody (R&D Systems).

In experiment [26] the test system is AML cell lines. Briefly: CDC, summary over AML cell lines. It counts as cell-based. On the procedure: as §1

Turning to `CC1=C(/C=C/C(C)=C/C=C/C(C)=C/C(=O)O)C(C)(C)CCC1` [ATRA, all-trans-retinoic acid], the figures for the PE-CD38 molecules/cell in experiment [1] (10 nM ATRA) and in [1] (100 nM ATRA) were 185737 molecules/cell and 210570 molecules/cell, respectively. Besides, the “increase in CD38 receptors” value in [1] (NB-4 cell line, 10 nM or 100 nM ATRA) is recorded as approximately 10 fold.
Regarding daratumumab, the CDC in [2] stood at 0%; in [3], 5%; in [4] it was 0%; in experiment [5] it was 0%; in experiment [6], 5%; in [7], 4%. The CDC entry in experiment [26] is recorded as “did not induce significant ADCC or CDC”. The “tumor burden (% leukemic CD45+CD33+ cells)” value in experiment [8], in experiment [9], in experiment [24] (peripheral blood) and in experiment [24] (spleen) was “reduced tumor burden” throughout. The “AML cell killing by apoptosis” value in [10] was “induced AML cell killing by apoptosis”. For the same compound, the Apoptosis is given as 18% in [11] (NB4, antibody 1 μg/ml, 22 hours, early and late apoptosis); 10-12% in experiment [12]; 20-30% in experiment [13]; 5% in experiment [14]; 10-15% in experiment [15]; 5-7% in [16]. The daratumumab-induced apoptosis in experiment [11] (with crosslinking antibody (FIG. 1B)) worked out at 18.3%; in experiment [11] (without crosslinking antibody (FIG. 1A)), 19.2%. In addition, the ADCC was found to be 2.30% in experiment [17]; 18.20% in experiment [18]; 6.30% in experiment [19]; 9.40% in [20]; 11.30% in [21]; 18.30% in experiment [22]. Moreover, the ADCC result in [23] is reported as “did not induce significant ADCC or CDC”. Also, the “total leukemic burden (number of CD45+CD33+ cells per four bones)” value in experiment [24] (bone marrow, Ctrl vs Dara) is reported as “no significant difference”. Also, the “total leukemic burden (number of CD45+CD33+ cells per μl blood)” value in [24] (peripheral blood) is recorded as “significantly reduced total leukemic burden”. Further, the “total leukemic burden (number of CD45+CD33+ cells per spleen)” value in experiment [24] (spleen) is reported as “significantly reduced total leukemic burden”. Further, the “percentage of CD38-positive AML blasts” value in experiment [25] (bone marrow, spleen and peripheral blood (FIG. 4B)) is listed as “reduced”. The “expression of CD38 on leukemia blasts” value in [25] (bone marrow), in experiment [25] (peripheral blood) and in experiment [25] (spleen) was “reduced expression of CD38” each time.
